Source: US20170216213A1, “DIRECTLY COMPRESSIBLE POLYVINYL ALCOHOLS” (Merck Patent GmbH, priority 2014, published 2017)

Test: Ascorbic acid in-vitro release test (USP Apparatus 2, paddle)
Assay type: physicochemical
Conditions: from PVA/MCC matrix tablets (samples 1 and 2)
Procedure: 9. Ascorbic acid release test: The ascorbic acid-containing compressed tablets (from the compressions with a pressing force of 20 kN) are measured in a SOTAX (Allschwil, Switzerland) in-vitro release apparatus using the “Apparatus 2 (Paddle Apparatus)” described in USP 36 under <711> and under the conditions described therein for “Extended-release dosage forms” (USP=United States Pharmacopoeia). The sampling is carried out automatically via a hose pump system with subsequent measurement in an 8453 spectrometer (Agilent Technologies, USA) and a flow cell.
The averaged values are obtained from the release tests of in each case 6 ascorbic acid-containing tablets pressed with a pressing force of 20 kN.
Measurement Apparatuses and Measurement Parameters:
1. —Sotax AT7s release apparatus fitted with Apparatus 2 (Paddle Apparatus in accordance with USP 36) • Temperature: 37° C.+/−0.5° C. • Paddle speed: 100 rpm • Volume of release medium per measurement vessel: 900 ml • Tablet weight: 500 mg • Total run time of the measurement: 720 min. (with sampling after 15, 30, 45, 60, 120, 180, 240, 300, 360, 420, 480, 540, 600, 660, 720 min.)
2. —Hose pump for sampling: Sotax CY 7-50 (SOTAX, Switzerland)
3. —8453 spectrometer (Agilent Technologies, USA) • Measurement at 244 nm in a 2 mm flow measurement cell • Evaluation via Excel • Medium preparation: Dosa Prep X8 (DOSATEC GmbH, Germany) […]

Duration of retarded in-vitro release: over several hours
SMILES: O=C1O[C@H]([C@@H](O)CO)C(O)=C1O [ascorbic acid, L(+)-ascorbic acid]
